What was measured:
Type in all cases: in vivo
[1] = tested on: oilseed rape - Brassica napus; experiment: Greenhouse drought stress test on oilseed rape after spray treatment; conditions: BRSNS (oilseed rape), drought stress 26° C./18° C. (day/night) one week, 7 days recovery; 250 g of a.s./ha, spray 600 l/ha; damage vs untreated stressed plants
Procedure: (§1) Oilseed rape, maize and barley are cultivated on sandy clay under greenhouse conditions. After 2-3 weeks, after BBCH10 to BBCH13 has been reached, the plants are each treated with bixafen at application rates of from 250 g/ha and 100 g/h. The spray volume is adjusted to 600 l/ha. The plants are then exposed to drought stress by heating the test chamber to 26° C./18° C. (day/night) or cold temperature stress brought about by cooling the test chamber to 8° C./1° C. (day/night). After one week, the test chamber is readjusted to normal temperatures and the test plants are then allowed to recover for 7 days. Evaluation of the compounds tested is carried out by comparison of the treated plants with the untreated plants, each of which was exposed to the stress factors, using the formula below: [formula] EFF: efficiency (%) SWug: damage to untreated control plants SWbg: damage to treated plants

maize - Zea mays = experiment: Greenhouse cold temperature stress test on maize after spray treatment; conditions: cold temperature stress 8° C./1° C. (day/night) one week, 7 days recovery, spray 600 l/ha, damage vs untreated stressed plants
Procedure: as §1

barley - Hordeum vulgare = experiment: Greenhouse drought stress test on barley after spray treatment; conditions: HORVS (barley), drought stress 26° C./18° C. (day/night) one week, 7 days recovery; 100 g of a.s./ha, spray 600 l/ha; damage vs untreated stressed plants
Procedure: as §1

With Cn1cc(C(=O)Nc2ccc(F)cc2-c2ccc(Cl)c(Cl)c2)c(C(F)F)n1 [bixafen, N-(3′,4′-dichloro-5-fluoro-1,1′-biphenyl-2-yl)-3-(difluoromethyl)-1-methyl-1H-pyrazole-4-carboxamide] the Efficiency [1] was 15%, the Efficiency (maize - Zea mays; 100 g of a.s./ha) was 21% and the Efficiency (maize - Zea mays; 250 g of a.s./ha) was 47%. It also gave an Efficiency (barley - Hordeum vulgare) of 22%.
